According to US20190008810A1, “METHOD FOR PREVENTION, TREATMENT AND ALLEVIATION OF INFECTIOUS DISEASES AND DISORDERS” (REPLICON HEALTH OY, priority 2016, published 2019):
Like-named read-outs stand apart in the source and are kept apart here.

Experiments:
[1] = test system: HO-1, GRHPR, PGC-1a and NRF1 pathway genes; assay: Gene expression in peripheral leukocytes after 4.5-day administration, Example 5b; format: in vivo, human
Description: FIG. 13a: In this 4.5-day experiment samples of peripheral leukocytes were collected from standard blood sample of S1 and S9 in fasting condition (0 h), and 1 hour (1 h) after taking 75 grams of glucose (Glutole, Biofile Pharma, 330 ml) for glucose tolerance test. After the collection of the blood samples the leukocytes were immediately separated, and after separation immediately lysed by stop solution and stored in freezer in line with the instructions by the service provider.
Gene expression was measured from those peripheral leukocyte (=white blood cells). Additionally, basal (=0-Control) gene expression of all genes was later measured for S1. This was done using a different gene expression method for genome wide sequencing.
The doses used were 250 mg taken twice a day, in the morning and before going to bed. The last DGA dose was double in size (some 8 mg/kg), and it was taken in the same morning as the collection of blood samples. Relatively high dose and 2.5 hours to measurement was chosen to see clearer dose response in gene expression from peripheral leukocytes.
In the FIG. 13a it is shown that UTPfsAEM gene expressions are activated markedly in peripheral leukocytes after 4.5 day DGA Activation compared to 0-control. The analysis of selected genes was conducted both in fasting conditions and 1 h after glucose intake (“fed” in FIG. 13a)) and in acute dosing, i.e. only 2.5 hours from last DGA dose.

[2] = test system: rat primary optic nerve astrocytes; assay: ROS generation (CellROX Green) in rat primary optic nerve astrocytes, Example 2; format: cell-based; details: 14 μM
Description: For proving the efficacy of DGA Activation in reducing ROS in infectious disorders an in vitro study using rat primary optic nerve astrocytes has been conducted. […] As an important part of the study the cell viability was estimated 6 hours after tBHP administration by two methods, i.e. LDH and MTT assays. Cell viability was measured using the in-house MTT assay (of Experimentica Ltd., Finland) and CytoTox96 non-radioactive cytotoxicity assay (G1780, Promega) in response to oxidative stress primary optic nerve astrocytes. The production of reactive oxygen species (ROS) was measured using CellROX Green (Invitrogen) and isolate RNA in RNALater solution (Ambion). Primary optical nerve astrocytes where obtained from 4-week-old male Wister rats (6 animals' altogether) and where cultured to obtain sufficient amount of cells for the experiment. In the experiment cells where plated at 5000 cells per well and allowed to adhere for 24 hrs prior to the administration of compounds for 48 hrs (replenished every 24 hrs). After 24 hrs the compounds were removed, and readded with new medium for 1 hr, prior to the administration of 85 μM tBHP (FIG. 3c). MTT and LDH assay were performed after 6 hrs and ROS detection using CellROX green was performed over a time course of 4 hrs. D-glyceric acid was mixed into the medium in beforehand in soluble calcium salt format (DGAcs). After mixing the calcium is liberated to the medium from the D-glyceric acid. D-glycerate is formed.

[3] = test system: acute upper respiratory infection (nose and throat); assay: Healing from acute upper respiratory infection in S1, Example 1c; format: in vivo, human
Source text: After successful healing process in November 2014 (Example 1b), S1 was almost excited when they got acute upper respiratory infection when traveling abroad around New Year 2015. Symptoms: a virus infection in throat and rhinitis had lasted for three days before initiation of the DGA activation. S1 felt also feverish during this three-day period (unfortunately there was no thermometer around during the travel).
Administration on the fourth day of the infection: In the morning at 0940 am S1 took 2×250 mg of D-glyceric acid calcium salt dehydrate mixed into the water. Now, swelling and aching of the throat was quite substantial like had been the case already on the previous night, also some fever was felt.
At 0330 pm S1 took 2×180 mg of D-glyceric acid calcium salt mixed into water to keep the DGA Activation alive. Swelling had reduced a little but this could be due to circadian variation. Third dose of the day (2×180 mg) was received at 0915 pm. Throat continued to feel better towards the night, alleviation of the symptoms compared to the morning and to the previous night was significant.
Next morning at 0715 1×200 mg was received. […] However, some swelling in the throat remained but no pain. On top of the DGA Activation 1×500 mg of paracetamol was received at 0840 am, mimicking combination medication like e.g. Tylenol Cold.
Second 1×200 mg dose was received at 0200 pm. […]

[4] = test system: severe IBD; format: in vivo, human
Source text: During the year following acute bowels infection and inflammation described in above (Example 1 e) they were placed by a specialist MD into queue for demanding operation to remove inflammation prone part from their bowels. While waiting for this operation (roughly a year from above described previous serious bowels inflammation (IBD)) S4 got serious IBD again. This happened as a follow up of two-week business trip during which the diet was not at all optimal and working was rather intensive.
By Saturday the symptoms were so severe that S4 could not walk properly. It was decided that […] rests for the weekend and goes to a doctor on Monday morning.
Because based on Example 1 e it is already known that the DGA Activation can efficiently reduce IBD in S4, it was decided that S4 starts using DGA immediately to reduce the inflammation. (Also, all other information presented in this application, including all other experiments and dose response analyses were available already, except for Example 1 g.) Initial dose was set relatively high because the inflammation was very severe and because it is known from all other experiments that there were no negative effects for S4 from the DGA Activation. 3×200 mg mixed into 2 dl of water was taken 3 times during Saturday, first dose at 0300 pm, next dose 2 hours thereafter and the last dose 4 hours after the second dose, i.e. at 0900 pm. Inflammatory symptoms remained high but fever reduced from 36.80 Celsius (before DGA activation) to 36.03 by 0939 pm. Paracetamol (1000 mg) was taken after the last fever measurement thus not affecting the decline. Another paracetamol was taken earlier the day at 0346 pm.

[5] = test system: metabolism of alcohol; details: administered with ethanol to rats; cited from earlier work

With `O=C(O)[C@H](O)CO` [DGA, D-glyceric acid] the GRHPR gene expression ([1]; fasting and fed, after 4.5 days) was “upregulated very significantly”, the HO-1 gene expression ([1]; fasting and fed, after 4.5 days, 2.5 hours from last dose) was “upregulated very significantly” and the “genes related to PGC-1a and NRF1 pathways” value ([1]; fasting, after 4.5 days vs 0-control) was “activated statistically very significantly”. For the same compound, the “increase of HO-1 expression” value ([1]; peripheral leukocytes in vivo) was “more than 100%”, the “ROS generation vs 0-controls” value ([2]; 0 tBHP (healthy conditions)) was “lower” and the “increase of average ROS generation in 15 minutes, tBHP group compared to without tBHP” value ([2]; 85 μM tBHP, 0 min to 15 min, control approximately 20%) was “approximately 30%”. The “ROS level vs control groups” value ([2]; 15, 30 and 60 minutes after bolus 85 μM tBHP) was “statistically significantly lower”, the fever next morning ([3]; S1, morning after first day of dosing) was “No fever was observed” and the “time to conquer the acute upper respiratory infection” value ([3]; S1, started on fourth day of infection, 2×250 mg then 2×180 mg doses) was 12 to 48 h. The “time to restoring defecation” value ([4]; S4) was 12 to 16 h, the “Blood CRP” value ([4]; S4, Friday 1100 am) was 11 and the CRP level ([4]; S4, Monday 0030 pm, 3×200 mg four times a day) was 85. The fever ([4]; S4, Saturday 0939 pm after 3 doses of 3×200 mg, 36.80 before) was 36.03 Celsius, the fever ([4]; S4, Sunday 0115 pm, normal 36.1) was 35.83 and the fever ([4]; S4, Sunday 0145) was 36.16. For the same compound, the CRP ([4]; S4, Wednesday noon, without antibiotics) was 22, the side effects ([4]; in vivo) was “did not cause any side effects” and the metabolism of alcohol [5] was “expedited the metabolism of alcohol”.
